Test results: PubChem BioAssay (NCI)
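Values below derive from 48-hour exposures of cells grown in 96-well plates, with endpoints linearly interpolated between the two concentrations bracketing the appropriate inhibition level. GI50 = concentration required for 50% inhibition of growth. The concentration for full growth arrest is given as TGI.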

What was measured:
Test in all cases: NCI tumour cell line growth inhibition, 48 h
UO-31 renal = tested on: UO-31 renal
K-562 leukemia = tested on: K-562 leukemia
NCI-H23 lung = tested on: NCI-H23 lung
SNB-19 CNS = tested on: SNB-19 CNS
EKVX NSCLC = tested on: EKVX NSCLC
SW-620 colon = tested on: SW-620 colon
MDA-MB-435 = tested on: MDA-MB-435
SF-268 CNS = tested on: SF-268 CNS
M14 melanoma = tested on: M14 melanoma
SK-OV-3 ovarian = tested on: SK-OV-3 ovarian

| Structure (SMILES) | TGI (UO-31 renal) | TGI (K-562 leukemia) | TGI (NCI-H23 lung) | TGI (SNB-19 CNS) | TGI (EKVX NSCLC) | TGI (SW-620 colon) | TGI (MDA-MB-435) | TGI (SF-268 CNS) | TGI (M14 melanoma) | TGI (SK-OV-3 ovarian) | GI50 (NCI-H23 lung) | GI50 (MDA-MB-435) |
| --- | --- | --- | --- | --- | --- | --- | --- | --- | --- | --- | --- | --- |
| Clc1nc(-[n+]2ccc(-c3ccncc3)cc2)nc(Nc2ccccc2)c1Cl | > 100 µM | > 100 µM | > 100 µM | > 100 µM | > 100 µM | > 100 µM | > 100 µM | > 100 µM | > 100 µM | > 100 µM |  |  |
| CC(NC(=O)/C(=C/c1ccccc1O)NC(=O)c1ccccc1)C(=O)O (configuration not stated) | 34.6 µM | > 100 µM | > 100 µM | 55.2 µM | 88.2 µM | > 100 µM | > 100 µM | 32.9 µM | > 100 µM | 50.2 µM |  |  |
| CCc1nnc(-n2c(C)nc3cc(Cl)ccc3c2=O)s1 | > 100 µM | > 100 µM | > 100 µM | > 100 µM | > 100 µM | > 100 µM | > 100 µM | > 100 µM | > 100 µM | > 100 µM |  |  |
| O=C1/C(=C/c2ccccc2)CCc2ccc(Cl)nc21 | 20.2 µM | 6.78 µM | 45.5 µM | 41.5 µM | 38.3 µM | 18.6 µM | 30.4 µM | > 64.8 µM | 23.6 µM | 73 µM |  |  |
| O=C(N/N=C\c1cccc2ccccc12)Nc1ccc([N+](=O)[O-])cc1 | > 61.8 µM | > 100 µM | > 60.2 µM | > 100 µM | > 100 µM | > 100 µM | > 100 µM | > 88.9 µM | > 100 µM | 97.2 µM |  |  |
| C/C(O)=C(\C=N\C(N)=S)C(=O)Nc1ccccc1C | > 100 µM | > 100 µM | > 100 µM | > 100 µM | > 100 µM | > 100 µM | > 100 µM | > 100 µM | > 100 µM | > 100 µM |  |  |
| CC(=O)N(CN1C(=O)CCC1C(=O)O)c1ccccc1 (configuration not stated) | > 100 µM | > 100 µM | > 100 µM | > 100 µM | > 100 µM | > 100 µM | > 100 µM | > 100 µM | > 100 µM | > 100 µM |  |  |
| CC(C)CCC[C@@H](C)[C@H]1CC[C@H]2[C@@H]3CC=C4C[C@@H](OC(=O)c5cccc6c(=O)c7ccccc7[nH]c56)CC[C@]4(C)[C@H]3CC[C@]12C | > 75 µM | > 75 µM | > 75 µM | > 75 µM | > 75 µM | > 75 µM | > 75 µM | > 75 µM | > 75 µM | > 75 µM |  |  |
| Cc1c2c3cc(O)ccc3nc-2n(C)c2ccccc12 | 2.72 µM | 7.5 µM | 8.61 µM | 15.1 µM | 6.91 µM | 2.7 µM | 4.62 µM | 8.02 µM | 4.6 µM | 6.22 µM |  |  |
| N#CC1=C(N)C(C#N)(C#N)C(c2ccc(F)cc2)C=C1C1CC1 (configuration not stated) | 27.2 µM | 41.9 µM | 13.8 µM | 27.9 µM | 75.4 µM | 56 µM | 12.4 µM | 16 µM | 15.8 µM | 30 µM |  |  |
| Cc1csc2c1C(=O)c1ccsc1C2=O | 8.85 µM | > 25.6 µM | 2.5 µM | 9.98 µM | 20 µM | 5.31 µM | 0.447 µM | 12.1 µM | 2.02 µM | 40.5 µM |  |  |
| COc1ccc(C(O)c2ccc3c(c2)OCO3)cc1 (configuration not stated) | > 100 µM | > 100 µM | > 100 µM | > 100 µM | > 100 µM | > 100 µM | > 100 µM | > 100 µM | > 100 µM | > 100 µM |  |  |
| N#CCCC1C(C#N)C2CC1C1C3C=CC(C3)C21 (configuration not stated) | > 100 µM | > 100 µM | > 100 µM | > 100 µM | > 100 µM | > 100 µM | > 100 µM | > 100 µM | > 100 µM | > 100 µM |  |  |
| CC1=C(C(=O)OCCc2ccc([N+](=O)[O-])cc2)C(c2ccccc2[N+](=O)[O-])C(C(=O)OC(C)C)=C(C)N1 (configuration not stated) | > 100 µM | > 100 µM | > 100 µM | > 100 µM | 39.2 µM | > 100 µM | > 100 µM | > 100 µM | 36.7 µM | > 100 µM |  |  |
| O=C(Nn1c(-c2ccccc2)nc2ccccc2c1=O)c1ccccn1 | > 100 µM | > 100 µM | > 100 µM | > 100 µM | > 100 µM | > 100 µM | > 100 µM | > 100 µM | > 100 µM | > 100 µM |  |  |
| COC(=O)c1ccc(-c2nc(C#N)c(N)o2)cc1 | > 100 µM | > 100 µM | > 100 µM | > 100 µM | > 100 µM | > 100 µM | > 100 µM | > 100 µM | > 100 µM | > 100 µM |  |  |

| Structure (SMILES) | TGI (UO-31 renal) | TGI (K-562 leukemia) | TGI (NCI-H23 lung) | TGI (SNB-19 CNS) | TGI (EKVX NSCLC) | TGI (SW-620 colon) | TGI (MDA-MB-435) | TGI (SF-268 CNS) | TGI (M14 melanoma) | TGI (SK-OV-3 ovarian) | GI50 (NCI-H23 lung) | GI50 (MDA-MB-435) |
| --- | --- | --- | --- | --- | --- | --- | --- | --- | --- | --- | --- | --- |
| CC(=O)/C=C/C=C(\C)CC/C=C(\C)CC(C)C | > 100 µM | 56.8 µM | 54.9 µM | > 100 µM | > 100 µM | 35.3 µM | 77.1 µM | > 100 µM | > 100 µM | > 100 µM |  |  |
| O=C(O)/C=C(/CC(=O)O)C(=O)O | 33.7 µM | 42.6 µM | 57.2 µM | 62.3 µM | 51.7 µM | 39.8 µM | 42.6 µM | 40 µM | 44.2 µM | 47.6 µM |  |  |
| COP(=O)(OC)C(N)CCSC (configuration not stated) | > 100 µM | > 100 µM | > 100 µM | > 100 µM | > 100 µM | > 100 µM | > 100 µM | > 100 µM | > 100 µM | > 100 µM |  |  |
| COC(=O)c1sc(=S)sc1SCc1ccccc1CSc1sc(=S)sc1C(=O)OC | > 100 µM | > 100 µM | > 100 µM | > 100 µM | > 100 µM | > 100 µM | > 100 µM | > 100 µM | > 100 µM | > 100 µM |  |  |
| O=C(C1=C(C(=O)c2ccccc2)SC2(S1)C(C(=O)c1ccccc1)=C(C(=O)c1ccccc1)Sc1c2ssc1=O)c1ccccc1 | > 100 µM | > 100 µM | > 100 µM | 66.5 µM | > 100 µM | > 100 µM | > 100 µM | > 100 µM | > 100 µM | > 100 µM |  |  |
| O=C(/C=C/c1ccc(-c2ccccc2[N+](=O)[O-])o1)NCc1ccc(C(=O)NCCc2ccccc2)cc1 | > 100 µM | > 100 µM | > 100 µM | > 100 µM | > 100 µM | > 100 µM | > 100 µM | > 100 µM | > 100 µM | > 100 µM |  |  |
| Cc1nnc2cc(C(=O)O)c3ccccc3n2c1=O | > 10 µM | > 10 µM | > 10 µM | > 10 µM | > 10 µM | > 10 µM | > 10 µM | > 10 µM | > 10 µM | > 10 µM |  |  |
| Cc1ccc(C(=O)N(C(C)C)C(C)C)cc1N=NN(C)C | > 100 µM | > 100 µM | > 100 µM | > 100 µM | > 100 µM | > 100 µM | > 100 µM | 98 µM | > 100 µM | > 100 µM |  |  |
| CCOC(=O)c1ccc2nc(NC(=O)COC(=O)CSc3nc(C)cc(C)n3)sc2c1 | 38.5 µM | > 100 µM | > 100 µM | > 100 µM | 62 µM | > 100 µM | > 100 µM | > 100 µM | > 100 µM | > 100 µM |  |  |
| S=C(N/N=C\C=N/NC(=S)N1CCCCCC1)N1CCCCCC1 | > 100 µM | > 100 µM | > 100 µM | > 100 µM | > 100 µM | > 100 µM | > 100 µM | > 100 µM | > 100 µM | > 100 µM |  |  |
| CCOC(=O)c1ccc(C(=O)C(C(C)=O)C(=O)OC(C)(C)C)n1C (configuration not stated) | > 100 µM | > 100 µM | > 100 µM | > 100 µM | > 100 µM | > 100 µM | > 100 µM | > 100 µM | > 100 µM | > 100 µM |  |  |
| COc1ccc(/C=C/c2cc(O)cc(OC)c2)cc1 | > 100 µM | > 100 µM | > 100 µM | > 100 µM | > 100 µM | > 100 µM | > 100 µM | > 100 µM | > 100 µM | > 100 µM |  |  |
| O=C(CC(O)(C(F)(F)F)C(F)(F)F)C(CCCl)C(O)(C(F)(F)F)C(F)(F)F (configuration not stated) | 73.3 µM | > 100 µM | 83.9 µM | > 100 µM | > 100 µM | > 100 µM | > 100 µM | > 100 µM | > 100 µM | > 100 µM |  |  |
| CC1(C)O[C@@H](CO)[C@H]([C@@]23OC[C@H]4OC(C)(C)OC4[C@@H]2OC(C)(C)O3)O1 (some centres not stated) | > 100 µM | > 100 µM | > 100 µM | > 100 µM | > 100 µM | > 100 µM | > 100 µM | > 100 µM | > 100 µM | > 100 µM |  |  |
| Cc1cc(C)c(S(=O)(=O)N(CCCCN)OCCCN)c(C)c1 | 31.8 µM | 44.4 µM | 43.2 µM | 34.5 µM | 31 µM | 32.6 µM | 30.7 µM | 34.3 µM | 35.9 µM | 31.8 µM |  |  |
| C/C(=N\NC(N)=O)C(CN1CCCCC1)C(c1ccccc1)c1c(O)c2ccccc2oc1=O (configuration not stated) | > 100 µM | > 100 µM | > 100 µM | > 100 µM | > 100 µM | > 100 µM | > 100 µM | > 100 µM | > 100 µM | > 100 µM | > 100 µM | > 100 µM |
